Results as given in patent US11976083B2, “Inhibitors of peptidylarginine deiminases” (Gilead Sciences, Inc., priority 2020, dated 2024).

What follows are molecules tested against T1, human PAD4 (Homo sapiens, UniProt Q9UM07) (assay: In vitro PAD4 BAEE biochemical assay). Conditions: BAEE substrate 3 mM, 5 nM PAD4, 2 mM calcium chloride; geometric mean of multiple experiments.
T1 construct: human PAD4 (NM_012387), A2-P663, was PCR amplified; His-SUMO (N, cleaved yes); made in house; host or cells: E. coli BL21(DE3)
T1 sequence (Q9UM07 2-663): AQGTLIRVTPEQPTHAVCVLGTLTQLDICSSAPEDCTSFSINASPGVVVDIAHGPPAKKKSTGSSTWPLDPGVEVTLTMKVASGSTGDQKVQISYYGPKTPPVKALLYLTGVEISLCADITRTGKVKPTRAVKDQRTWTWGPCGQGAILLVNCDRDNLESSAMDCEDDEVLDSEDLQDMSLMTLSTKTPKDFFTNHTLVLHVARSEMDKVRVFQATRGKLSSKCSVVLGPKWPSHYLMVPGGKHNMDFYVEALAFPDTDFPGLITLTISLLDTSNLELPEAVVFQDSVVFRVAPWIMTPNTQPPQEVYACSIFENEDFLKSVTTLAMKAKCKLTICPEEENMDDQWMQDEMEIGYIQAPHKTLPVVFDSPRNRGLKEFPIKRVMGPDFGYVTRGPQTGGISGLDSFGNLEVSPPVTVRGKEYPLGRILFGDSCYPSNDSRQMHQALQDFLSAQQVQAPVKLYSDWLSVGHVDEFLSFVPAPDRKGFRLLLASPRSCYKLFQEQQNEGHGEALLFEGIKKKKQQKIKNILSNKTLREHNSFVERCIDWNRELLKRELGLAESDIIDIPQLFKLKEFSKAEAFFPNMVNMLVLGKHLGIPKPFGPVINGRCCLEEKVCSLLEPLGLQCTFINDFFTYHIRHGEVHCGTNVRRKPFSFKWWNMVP
How it was run: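 Assay was run at 25 °C using 3 mM BAEE and 5 nM human PAD4 after a 30 min compound preincubation; ammonia produced over 2 h was quantified by OPA-derived fluorescence. Full inhibition was defined by 50 µM BB-Cl-Amidine, and IC50 came from variable-slope nonlinear regression.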

Structure (SMILES)	IC50 [nM]
[2H]C1([2H])CCCn2c(-c3nc4cc(C(=O)N5C[C@H](N)[C@@H]6CC[C@H]5C6)cc(F)c4n3C3CC3)cc3ccc(nc32)[C@@H](C)NC(=O)c2ccc(Cl)nc2C1([2H])[2H] [Example 951, (2~{R})-17-[5-[(1~{S},4~{R}, 5~{R})-4-amino-2-azabicyclo [3.2.1]octane-2-carbonyl]-1-cyclopropyl-7-fluoro-benzimidazol-2-yl]-8-chloro-11,11,12,12-tetradeuterio-2-methyl-3,9,16,22-tetrazatetracyclo[14.5.2.0^ {5,10).0^{19,23}]tricosa-1(22),5(10),6,8,17,19(23),20-heptaen-4-one]	24
COc1cc(C(=O)N2[C@H]3CC[C@@H]2[C@H](N)C3)cc2nc(-c3cc4ccc5nc4n3CCCCCCCC(=O)N3CC4(CC4)CC53)n(C)c12 (stereo partly shown) [Example 134, 16-[5-[(1˜{R},2˜{R},4˜{S})-2-amino-7-azabicyclo[2.2.1]heptane-7-carbonyl]-7-methoxy-1-methyl-benzimidazol-2-yl]spiro[6,15,21-triazatetracyclo[13.5.2.0^{2,6}.0^{18,22}]docosa-1(21),16,18(22),19-tetraene-4,1′-cyclopropane]-7-one]	125
C[C@@H]1[C@H](N)CCCN1C(=O)c1cc(F)c2c(c1)nc(-c1cc3ccc4nc3n1CCCCCc1nc(C(F)(F)F)ccc1C(=O)N[C@@H]4C)n2C1CC1 [Example 838, (2~{R})-17-[5-[(2~{R}, 3~{R})-3-amino-2-methyl-piperidine-1-carbonyl]-1-cyclopropyl-7-fluoro-benzimidazol-2-yl]-2-methyl-8-(trifluoromethyl)-3,9,16,22-tetrazatetracyclo[14.5.2.0^ {5,10).0^{19,23}] tricosa-1(22),5(10), 6,8,17,19(23),20-heptaen-4-one]	49
COc1cc(C(=O)N2CCC[C@@H](N)C2)cc2nc(-c3cc4ccc5nc4n3CCCCCCCCCC(=O)N[C@@H]5C)c(C)n12 [Example 284, (13~{R})-19-[7-[(3~{R})-3-aminopiperidine-1-carbonyl]-5-methoxy-3-methyl-imidazo[1,2-a]pyridin-2-yl]-13-methyl-1,12,21-triazatricyclo[12.5.2.0^{17,20}]henicosa-14(21),15,17(20),18-tetraen-11-one]	52
COc1cc(C(=O)N2C[C@H](N)[C@@H]3CC[C@H]2C3)cc2nc(-c3cc4ccc5nc4n3CC(F)(F)CCCCC3(CC3)C(=O)N[C@@H]5C)n(C)c12 [Example 475, (11~{R})-17-[5-[(1~{S},4~{R},5~{R})-4-amino-2-azabicyclo[3.2.1]octane-2-carbonyl]-7-methoxy-1-methyl-benzimidazol-2-yl]-3,3-difluoro-11-methyl-spiro[1,10,19-triazatricyclo[10.5.2.0^{15,18}]nonadeca-12(19),13,15(18),16-tetraene-8,1′-cyclopropane]-9-one]	62
COc1cc(C(=O)N[C@@H]2CC[C@H](C)NC2)cc2nc(-c3cc4ccc5nc4n3CCCCCCC3(CC3)C(=O)N[C@@H]5C)n(C)c12 [Example 72, 7-methoxy-1-methyl-2-[(11~{R})-11-methyl-9-oxo-spiro[1,10,19-triazatricyclo[10.5.2.0^{15,18}]nonadeca-12(19),13,15(18),16-tetraene-8,1′-cyclopropane]-17-yl]-~{N}-[(3~{R},6~{S})-6-methyl-3-piperidyl]benzimidazole-5-carboxamide]	308
COC[C@H]1CCN(C(=O)c2cc(OC)c3c(c2)nc(-c2cc4ccc5nc4n2CCCCCCC(C)(C)C(=O)N[C@@H]5C)n3C)C[C@@H]1N [Example 677, (11~{R})-17-[5-[(3~ {R},4~{S})-3-amino-4-(methoxymethyl)piperidine-1-carbonyl]-7-methoxy-1-methyl-benzimidazol-2-yl]-8,8,11-trimethyl-1,10,19-triazatricyclo [10.5.2.0^{15,18}] nonadeca-12(19),13,15 (18),16-tetraen-9-one]	82
COc1cc(C(=O)N2CC[C@@H](OC)[C@@H](N)C2)cc2nc(-c3cc4ccc5nc4n3CC(F)(F)CCCCC3(CCC3)C(=O)N[C@@H]5C)n(C)c12 [Example 614, (11~{R})-17-[5-[(3~{S},4~ {R})-3-amino-4-methoxy-piperidine-1-carbonyl]-7-methoxy-1-methyl-benzimidazol-2-yl]-3,3-difluoro-11-methyl-spiro[1,10,19-triazatricyclo[10.5.2.0^ {15,18}]nonadeca-12,14,16,18-tetraene-8,1′-cyclobutane]-9-one]	114
COc1cc(C(=O)N2CC[C@@H](OC(F)F)[C@@H](N)C2)cc2nc(-c3cc4ccc5nc4n3CCCCCc3ccccc3C(=O)N[C@@H]5C)n(C)c12 [Example 491, (2~{R})-17-[5-[(3~ {S},4~{R})-3-amino-4-(difluoromethoxy)piperidine-1-carbonyl]-7-methoxy-1-methyl-benzimidazol-2-yl]-2-methyl-3,16,22-triazatetracyclo [14.5.2.0^{5,10}.0^{19,23}] tricosa-1(22),5(10), 6,8,17,19(23),20-heptaen-4-one]	253

The next lines start with the values.

IC50 [nM]	Structure (SMILES)
49	COc1cc(C(=O)N2CCC[C@@H](N)C2)cc2nc(-c3cc4ccc5nc4n3CCCCCc3nccnc3C(=O)N[C@@H]5C)n(C)c12 [Example 627, (2~{R})-17-[5-[(3~{R})-3-aminopiperidine-1-carbonyl]-7-methoxy-1-methyl-benzimidazol-2-yl]-2-methyl-3,6,9,16,22-pentazatetracyclo [14.5.2.0^{5,10}.0^{19,23}] tricosa-1(22),5(10), 6,8,17,19(23),20-heptaen-4-one]
47	CO[C@@H]1CCCCC(F)(F)Cn2c(-c3nc4cc(C(=O)N[C@H]5CNCC[C@@H]5F)c(F)cc4n3C)cc3ccc(nc32)[C@@H](C)NC1=O [Example 623, 2-[(8~{R},11~{R})-3,3-difluoro-8-methoxy-11-methyl-9-oxo-1,10,19-triazatricyclo[10.5.2.0^ {15,18}]nonadeca-12(19),13,15(18),16-tetraen-17-yl]-6-fluoro-~{N}-[(3~{S}, 4~{S})-4-fluoro-3-piperidyl]-1-methyl-benzimidazole-5-carboxamide]
56	C[C@H]1NC(=O)C(C)(C)CCCCCCn2c(-c3nc4cc(C(=O)N5[C@H]6CC[C@@H]5[C@H](N)C6)c(F)c(F)c4n3C)cc3ccc1nc32 [Example 555, (11~{R})-17-[5-[(1~{R}, 2~{R},4~{S})-2-amino-7-azabicyclo [2.2.1]heptane-7-carbonyl]-6,7-difluoro-1-methyl-benzimidazol-2-yl]-8,8,11-trimethyl-1,10,19-triazatricyclo [10.5.2.0^{15,18}]nonadeca-12(19),13,15(18),16-tetraen-9-one]
91	C[C@H]1NC(=O)C2(CCCCCCn3c(-c4nc5cc(C(=O)N[C@H]6CNCC[C@@H]6F)c(F)cc5n4C)cc4ccc1nc43)CC(F)(F)C2 [Example 402, 2-[(11~{R})-1′,1′-difluoro-11-methyl-9-oxo-spiro[1,10,19-triazatricyclo[10.5.2.0^{15,18}]nonadeca-12(19),13,15(18),16-tetraene-8,3′-cyclobutane]-17-yl]-6-fluoro-~{N}-[(3~{S},4~{S})-4-fluoro-3-piperidyl]-1-methyl-benzimidazole-5-carboxamide]
